Test results as given in US20110166206A1, “UBIQUILIN REGULATION OF PRESENILIN ENDOPROTEOLYSIS, AND SUPPRESSION OF POLYGLUTAMINE-INDUCED TOXICITY IN CELLS” (UNIVERSITY OF MARYLAND BIOTECHNOLOGY INSTITUTE, priority 2005, published 2011).

Assays:
PS1 and PS2 NTF and CTF = test: MG132 treatment of UBQLN-transfected PS1 and PS2 stable cell lines, fragment immunoblot; type: cell-based; settings: UBQLN1 transfected vs untransfected, MG132
Protocol: FIG. 3. […] (A) PS1 cells lines that were either not induced (lanes 1 and 3) or induced with PonA (lanes 2 and 4) and either left untransfected (lanes 1 and 2) or transfected with UBQLN1 expression plasmids (lanes 3 and 4) were treated for 7 h with MG132 after which protein lysates were collected and analyzed by immunoblotting. […] For clarification, if UBQLN did increase the turnover rate then by blocking degradation, turnover would be stopped and PS fragment levels would be similar, or increase, relative to that of untransfected cells. […] Densitometric analysis was used to quantify the extent of reduction. Each experiment was repeated more than three times and similar trends were observed.
(B) Same experiment and results as described in (A) except that PS2 inducible cell lines were used to examine PS2 NTF and CTF levels. […] UBQLN exerts greater effects on PS2 probably because it interacts more strongly with PS2, see [43].
(§1) HeLa and HEK293 cells were grown in DMEM supplemented with 10% FBS. PS1 and S2 inducible cell lines were generated by transfection of the pERV-expressing HEK293 cell line (Stratgene, IaIolla, Calif.) with FL human PS2 cDNA under the control of ponasteroneA (PonA)-inducible cassette in plasmid pEGSH (Stratagene). Stable integration of the pEGSH plasmid was achieved by selection for hygromycin resistance. […]

mouse cortical neurons = test: Ubiquilin-1 overexpression in mouse primary neuronal cultures transfected with GFP-HttPolyQ74; type: cell-based
Protocol: FIG. 10. […] Mouse cortical neurons (14 days in vitro) were transiently transfected with pEGFP (3 μg each well, a), or pEGFP-HttExon-1polyQ(74) alone (3 μg each well, b), or cotransfected with both pEGFP-HttExon-1polyQ(74) and ubiquilin-1 cDNA with the ratio indicated (3 μg of pEGFP-HttExon-1polyQ(74) plus 1.5 μg or 3 μg of ubiquilin-1 cDNA; c, d).
B. Overexpression of ubiquilin-1 reduces formation of GFP-HttPolyQ(74) inclusions in cultured mouse neurons. […] Overexpression of ubiquilin-1 reduces GFP-HttPolyQ(74)-induced cell death in cultured mouse neurons. 30 hours following transfection, the cultures were stained with both Hoechst 33342 and propidium iodide (PI) and then subjected for fluorescent microscopy analysis. PI positively stained cells were treated as dead cells and only the green (GFP-positive) cells were included in the cell death analysis. Results are mean±SD.
Next it was investigated whether the modulation of polyglutamine aggregation and toxicity by ubiquilin-1 overexpression is manifested in neuronal cells, which might be more relevant in terms of controlling neurodegeneration in HD and related disorders. […] The insolubility of the Htt protein was not measured in these cells due difficulties in preparing reliable soluble and insoluble material from neurons and because of a limitation in the number for cells required for the assay.

PS2 NTF = test: Cycloheximide time course of PS2 fragment production in PS2 inducible cells with or without UBQLN1 transfection; type: cell-based, human
Protocol: (A) Time course experiment using ponA-induced PS2 cell line cultures transfected with or without UBQLN1 expression plasmids were treated with […] cycloheximide for 0-6 hours. Equal amounts of protein lysate were separated by 8.5% SDS-PAGE and subsequently immunoblotted with anti-UBQLN antibody. Transfected cells reveal a 4-fold increase in UBQLN1 levels. Next, the protein lysates were immunoblotted using anti-PS2 NH,-terminal antibody to detect FL and NTF PS2 levels, as indicated. Note both FL PS2 turnover and NTF production levels in transfected versus untransfected cell lysates.
(B) Same experiment as (A) except FL PS expression was not induced using PonA.
(C) Graphs showing relative levels of PS2 polypeptides in PS2 inducible cell lysates after densitometric analysis of the immunoreactive bands shown in panels A and B. The levels were calculated by normalization of the signals relative to that in Lane 1. The Microsoft Excel program was used to produce a best-fit line for each graph. […] However, this is completely opposite of NTF levels. UBQLN not only decreases NTF levels at every time-point in the experiment, but it also slows the rate of NTF production, as determined by measuring the slope of each line.
as §1, with “resistance. PS expression was induced by adding PonA (final cont. 10 pM) to the medium. For proteasome inhibition studies, cultures were treated with 40 uM MG132 (Calbiochem, San Diego, Calif.) for time periods as indicated.” for “resistance.”
To this end, protein synthesis was inhibited using cyclohexamide (CHX) and PS fragment production was monitored over a six-hour time period in UBQLN transfected and untransfected lysates that were either induced or uninduced for PS expression. […]

Substance: UBQLN1: PS-interacting protein ubiquilin-1, overexpressed in cells from a cDNA expression plasmid
- PS1 and PS2 NTF and CTF levels after MG132 treatment (PS1 and PS2 NTF and CTF): remained reduced
- inclusion formation (mouse cortical neurons): decreased inclusion formation
- neuronal cell death (mouse cortical neurons): decreased GFP-HttPolyQ74-induced neuronal cell death
- rate of PS2 NTF production (PS2 NTF; PS induced and uninduced cells treated with CHX): slows the rate of PS2 NTF production
- UBQLN1 overexpression level in transfected lysates (PS2 NTF; transfected vs untransfected, UBQLN immunoblot): 4 fold
